# Measured values taken from ChEMBL document CHEMBL2062423 (ACS Med Chem Lett, 2012).
# The source made the active and inactive calls. The rule behind the calls is not given here.
# Tests used:
# [1] = target: Sodium-dependent dopamine transporter (Homo sapiens, UniProt Q01959); assay: Displacement of [3H]WIN-35,428 from human DAT expressed in mouse N2A cells after 15 mins by liquid scintillation counting; type: cell-based
# [2] = target: Sodium-dependent dopamine transporter (Rattus norvegicus) (UniProt P23977); assay: Binding affinity to DAT in rat striatal membrane at 10 nM incubated for 1.5 hrs prior to irradiation measured after 5 mins by photoaffinity labeling-based autoradiographic analysis; type: cell membranes; conditions: Striatum, tested as the 125I-labelled form
# [3] = target: Sodium-dependent dopamine transporter (Rattus norvegicus) (UniProt P23977); assay: Binding affinity to DAT in rat striatal membrane at 10 nM incubated for 1.5 hrs prior to irradiation measured after 5 mins by photoaffinity labeling-based autoradiographic analysis in presence of (-)-cocaine; type: cell membranes; conditions: Striatum, tested as the 125I-labelled form
# [4] = target: Sodium-dependent dopamine transporter (Rattus norvegicus) (UniProt P23977); assay: Binding affinity to DAT in rat striatal membrane at 10 nM incubated for 1.5 hrs prior to irradiation measured after 5 mins by photoaffinity labeling-based autoradiographic analysis in presence of D-methylphenidate; type: cell membranes; conditions: Striatum, tested as the 125I-labelled form
# Sequence of Sodium-dependent dopamine transporter (Rattus norvegicus) (P23977 whole entry): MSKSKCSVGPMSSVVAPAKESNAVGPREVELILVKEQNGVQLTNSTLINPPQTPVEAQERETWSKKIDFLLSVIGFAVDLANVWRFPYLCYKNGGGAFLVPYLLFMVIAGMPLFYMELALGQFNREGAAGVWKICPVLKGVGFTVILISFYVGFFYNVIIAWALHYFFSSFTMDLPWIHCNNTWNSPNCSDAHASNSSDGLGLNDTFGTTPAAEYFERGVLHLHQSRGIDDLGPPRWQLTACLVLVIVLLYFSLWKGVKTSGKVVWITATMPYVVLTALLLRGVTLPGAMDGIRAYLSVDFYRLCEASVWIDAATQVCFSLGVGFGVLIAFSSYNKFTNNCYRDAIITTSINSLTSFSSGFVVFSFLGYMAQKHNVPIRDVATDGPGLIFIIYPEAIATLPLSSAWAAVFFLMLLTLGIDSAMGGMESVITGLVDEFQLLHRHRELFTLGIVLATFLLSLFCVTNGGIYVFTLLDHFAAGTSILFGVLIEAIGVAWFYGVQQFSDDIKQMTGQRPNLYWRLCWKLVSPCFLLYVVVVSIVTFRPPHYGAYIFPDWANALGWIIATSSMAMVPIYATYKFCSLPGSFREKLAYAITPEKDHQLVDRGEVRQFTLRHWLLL
# Sequence of Sodium-dependent dopamine transporter (Q01959 whole entry): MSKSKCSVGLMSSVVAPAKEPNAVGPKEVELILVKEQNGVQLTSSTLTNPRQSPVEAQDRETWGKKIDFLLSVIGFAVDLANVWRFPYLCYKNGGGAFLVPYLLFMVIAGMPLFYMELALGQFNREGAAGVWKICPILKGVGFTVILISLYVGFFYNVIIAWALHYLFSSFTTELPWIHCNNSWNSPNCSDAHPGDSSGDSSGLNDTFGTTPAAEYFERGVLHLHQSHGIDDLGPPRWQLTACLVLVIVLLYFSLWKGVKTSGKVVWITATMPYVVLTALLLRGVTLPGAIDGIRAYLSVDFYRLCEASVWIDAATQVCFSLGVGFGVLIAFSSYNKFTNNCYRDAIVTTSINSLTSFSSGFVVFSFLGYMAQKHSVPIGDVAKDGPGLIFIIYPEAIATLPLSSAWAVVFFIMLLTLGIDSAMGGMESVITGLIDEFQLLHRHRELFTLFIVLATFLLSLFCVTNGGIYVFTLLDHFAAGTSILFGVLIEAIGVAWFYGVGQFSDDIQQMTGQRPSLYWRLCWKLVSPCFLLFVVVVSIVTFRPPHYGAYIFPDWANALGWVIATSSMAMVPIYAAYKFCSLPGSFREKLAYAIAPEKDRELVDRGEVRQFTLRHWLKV
smiles,measurement,setting,value
COC(=O)[C@H](c1ccc(Cl)c(Cl)c1)[C@H]1CCCCN1 (racemic),Ki,[1],1.8 nM
COC(=O)[C@H](c1ccc(N)cc1)[C@H]1CCCCN1 (racemic),Ki,[1],6.3 nM
COC(=O)[C@H](c1ccc([N+](=O)[O-])cc1)[C@H]1CCCCN1 (racemic),Ki,[1],77 nM
COC(=O)[C@H](c1ccc(N=[N+]=[N-])c(I)c1)[C@H]1CCCCN1 (racemic),Ki,[1],4 nM
same,Activity,[2],Active
same,Activity,[3],inactive
same,Activity,[4],inactive
COC(=O)[C@H](c1ccc(N)c(I)c1)[C@H]1CCCCN1 (racemic),Ki,[1],9.1 nM
COC(=O)[C@H](c1ccc(N=[N+]=[N-])cc1)[C@H]1CCCCN1 (racemic),Ki,[1],35 nM
